# Data published in patent publication US20230255205A1, “HERBICIDAL HETEROCYCLIC DERIVATIVES” (MoA Technology Limited, priority 2020, published 2023).
# Tested on: Echinochloa crus-galli (ECHCG)
# Assay: Comparative tests against non-claimed structural analogues, % visual injury
# Format: in vivo
# Conditions: rate 125 g/ha
# Description: (§1) Selected compounds of the invention were also assessed in comparative tests (Table 5) against structural analogues not according to the invention (e.g. a compound containing an imidazole and one containing an oxazole, neither of which fall within the scope of the claimed invention). In each test, compounds were applied at a rate of 125 g/ha. Test 1 compared the efficacy of a compound of the invention (93) with a non-claimed structure which contains an unsubstituted triazole (105). […] Test 2 compared the efficacy of compound 93 with compound 104, which contains an imidazole and is therefore not according to the invention. […] Test 3 compared the efficacy of compound 43, a further compound according to the invention, with compound 103, which contains an oxazole not according to the invention.
row,SMILES,ECHCG % visual Injury
1,O=C(COc1ccc(F)cc1Cl)Nc1nnc[nH]1 [Compound 105],20%
2,O=C(COc1ccc(F)cc1Cl)Nc1nnc(C(F)(F)F)[nH]1 [Compound 93],30%
3,O=C(COc1ccc(F)cc1Cl)Nc1ncc(C(F)(F)F)o1 [Compound 103],30%
4,O=C(COc1ccc(F)cc1Cl)Nc1ncc(C(F)(F)F)[nH]1 [Compound 104],30%
5,O=C(COc1ccc(F)cc1Cl)Nc1nnc(C(F)(F)F)o1 [Compound 43],30%

# Tested on: Veronica persica (VERPE)
# Assay: as above
# Format: in vivo
# Conditions: rate 125 g/ha
# Description: as §1
row,SMILES,VERPE % visual Injury
1,O=C(COc1ccc(F)cc1Cl)Nc1nnc[nH]1 [Compound 105],40%
2,O=C(COc1ccc(F)cc1Cl)Nc1nnc(C(F)(F)F)[nH]1 [Compound 93],80%
3,O=C(COc1ccc(F)cc1Cl)Nc1ncc(C(F)(F)F)o1 [Compound 103],50%
4,O=C(COc1ccc(F)cc1Cl)Nc1ncc(C(F)(F)F)[nH]1 [Compound 104],70%
5,O=C(COc1ccc(F)cc1Cl)Nc1nnc(C(F)(F)F)o1 [Compound 43],70%

# Tested on: Lolium multiflorum (LOLMU)
# Assay: as above
# Format: in vivo
# Conditions: rate 125 g/ha
# Description: as §1
row,SMILES,LOLMU % visual Injury
1,O=C(COc1ccc(F)cc1Cl)Nc1nnc[nH]1 [Compound 105],0%
2,O=C(COc1ccc(F)cc1Cl)Nc1nnc(C(F)(F)F)[nH]1 [Compound 93],20%
3,O=C(COc1ccc(F)cc1Cl)Nc1ncc(C(F)(F)F)o1 [Compound 103],20%
4,O=C(COc1ccc(F)cc1Cl)Nc1ncc(C(F)(F)F)[nH]1 [Compound 104],10%
5,O=C(COc1ccc(F)cc1Cl)Nc1nnc(C(F)(F)F)o1 [Compound 43],50%

# Tested on: Amaranthus retroflexus (AMARE)
# Assay: as above
# Format: in vivo
# Conditions: rate 125 g/ha
# Description: as §1
row,SMILES,AMARE % visual Injury
1,O=C(COc1ccc(F)cc1Cl)Nc1nnc[nH]1 [Compound 105],50%
2,O=C(COc1ccc(F)cc1Cl)Nc1nnc(C(F)(F)F)[nH]1 [Compound 93],60%
3,O=C(COc1ccc(F)cc1Cl)Nc1ncc(C(F)(F)F)o1 [Compound 103],50%
4,O=C(COc1ccc(F)cc1Cl)Nc1ncc(C(F)(F)F)[nH]1 [Compound 104],40%
5,O=C(COc1ccc(F)cc1Cl)Nc1nnc(C(F)(F)F)o1 [Compound 43],70%

# Tested on: Echinochloa crus-galli (ECHCG)
# Assay: Pre-emergence herbicidal test, % visual injury
# Format: in vivo
# Conditions: 336 h, rate 1000 g/ha, 14±1 days post-emergence in untreated plots
# Description: (§2) Pre-emergence testing was also performed using the same test species grown in a sandy loam soil mixture, Lolium multiflorum (LOLMU), Amaranthus retroflexus (AMARE), Echinochloa crus-galli (ECHCG), Veronica persica (VERPE).
# (§3) After sowing, at growth stage BBCH 00-07 (pre-emergence), the plants are sprayed with an aqueous spray solution derived from the formulation of the technical active ingredient in acetone/water (50:50) solution containing 0.5% Tween 20 (polyoxyethlyene sorbitan monolaureate, GAS RN 9005-64-5). The test compounds are applied at the required […] concentration of active ingredient in g/ha. The test plants are then grown in a glasshouse under controlled environmental conditions and watered regularly as required. After 14±1 days post-emergence in untreated plots (for the pre-emergence test), the test is evaluated by assessing the percentage damage caused to the plants in comparison with the untreated plots. The biological activities for pre-emergence testing are shown below (Table 4) in the following table as a % visual injury.
row,SMILES,pest or weed control at 1000 g/ha
1,O=C(COc1ccc(Cl)cc1Cl)Nc1nnc(C(F)(F)F)[nH]1 [Compound 36],40%
2,CC(Oc1ccc(F)cc1Cl)C(=O)Nc1nnc(C(F)(F)F)[nH]1 (centres unmarked) [Compound 32],0%
3,"O=C(CCCOc1ccc(Cl)cc1Cl)Nc1nnc(C(F)(F)F)[nH]1 [Compound 28, 4-(2,4-dichlorophenoxy)-N-[5-(trifluoromethyl)-4H-1,2,4-triazol-3-yl]butanamide]",0%
4,"O=C(CCCOc1ccc(F)cc1Cl)Nc1nnc(C(F)(F)F)[nH]1 [Compound 30, 4-(2-chloro-4-fluorophenoxy)-N-[5-(trifluoromethyl)-4H-1,2,4-triazol-3-yl]butanamide]",0%
5,Cc1cc(Cl)ccc1OCCCC(=O)Nc1nnc(C(F)(F)F)[nH]1 [Compound 29],0%

# Tested on: Veronica persica (VERPE)
# Assay: Pre-emergence herbicidal test, % visual injury
# Format: in vivo
# Conditions: 336 h, rate 1000 g/ha, 14±1 days post-emergence in untreated plots
# Description: as §2, §3
row,SMILES,pest or weed control at 1000 g/ha
1,O=C(COc1ccc(Cl)cc1Cl)Nc1nnc(C(F)(F)F)[nH]1 [Compound 36],0%
2,CC(Oc1ccc(F)cc1Cl)C(=O)Nc1nnc(C(F)(F)F)[nH]1 (centres unmarked) [Compound 32],5%
3,"O=C(CCCOc1ccc(Cl)cc1Cl)Nc1nnc(C(F)(F)F)[nH]1 [Compound 28, 4-(2,4-dichlorophenoxy)-N-[5-(trifluoromethyl)-4H-1,2,4-triazol-3-yl]butanamide]",0%
4,"O=C(CCCOc1ccc(F)cc1Cl)Nc1nnc(C(F)(F)F)[nH]1 [Compound 30, 4-(2-chloro-4-fluorophenoxy)-N-[5-(trifluoromethyl)-4H-1,2,4-triazol-3-yl]butanamide]",0%
5,Cc1cc(Cl)ccc1OCCCC(=O)Nc1nnc(C(F)(F)F)[nH]1 [Compound 29],0%

# Tested on: Lolium multiflorum (LOLMU)
# Assay: Pre-emergence herbicidal test, % visual injury
# Format: in vivo
# Conditions: 336 h, rate 1000 g/ha, 14±1 days post-emergence in untreated plots
# Description: as §2, §3
row,SMILES,pest or weed control at 1000 g/ha
1,O=C(COc1ccc(Cl)cc1Cl)Nc1nnc(C(F)(F)F)[nH]1 [Compound 36],0%
2,CC(Oc1ccc(F)cc1Cl)C(=O)Nc1nnc(C(F)(F)F)[nH]1 (centres unmarked) [Compound 32],0%
3,"O=C(CCCOc1ccc(Cl)cc1Cl)Nc1nnc(C(F)(F)F)[nH]1 [Compound 28, 4-(2,4-dichlorophenoxy)-N-[5-(trifluoromethyl)-4H-1,2,4-triazol-3-yl]butanamide]",40%
4,"O=C(CCCOc1ccc(F)cc1Cl)Nc1nnc(C(F)(F)F)[nH]1 [Compound 30, 4-(2-chloro-4-fluorophenoxy)-N-[5-(trifluoromethyl)-4H-1,2,4-triazol-3-yl]butanamide]",60%
5,Cc1cc(Cl)ccc1OCCCC(=O)Nc1nnc(C(F)(F)F)[nH]1 [Compound 29],20%

# Tested on: Amaranthus retroflexus (AMARE)
# Assay: Pre-emergence herbicidal test, % visual injury
# Format: in vivo
# Conditions: rate 1000 g/ha, 14±1 days post-emergence in untreated plots
# Description: as §2, §3
row,SMILES,AMARE % visual Injury
1,O=C(COc1ccc(Cl)cc1Cl)Nc1nnc(C(F)(F)F)[nH]1 [Compound 36],40%

# Tested on: Echinochloa crus-galli (ECHCG)
# Assay: Post-emergence herbicidal test, % visual injury
# Format: in vivo
# Conditions: 336 h, rate 500 g/ha, 14±1 days post application
# Description: (§4) Seeds of a variety of test species are grown in a sandy loam soil mixture, Lolium multiflorum (LOLMU), Amaranthus retroflexus (AMARE), Echinochloa crus-galli (ECHCG), Veronica persica (VERPE).
# (§5) After sowing, at growth stage BBCH 12-14 (post-emergence), the plants are sprayed with an aqueous spray solution derived from the formulation of the technical active ingredient in acetone/water (50:50) solution containing 0.5% Tween 20 (polyoxyethlyene sorbitan monolaureate, CAS RN 9005-64-5). The test compounds are applied at the required concentration of active ingredient in g/ha. The test plants are then grown in a glasshouse under controlled environmental conditions and watered regularly as required. After 14±1 days post application (for post-emergence test), the test is evaluated by assessing the percentage damage caused to the plants in comparison with the untreated plots. The biological activities for post-emergence testing are shown below (Table 3) as a % visual injury.
row,SMILES,pest or weed control at 500 g/ha
1,"O=C(CCCOc1ccc(Cl)cc1Cl)Nc1nnc(C(F)(F)F)[nH]1 [Compound 28, 4-(2,4-dichlorophenoxy)-N-[5-(trifluoromethyl)-4H-1,2,4-triazol-3-yl]butanamide]",10%
2,"O=C(CCCOc1ccc(F)cc1Cl)Nc1nnc(C(F)(F)F)[nH]1 [Compound 30, 4-(2-chloro-4-fluorophenoxy)-N-[5-(trifluoromethyl)-4H-1,2,4-triazol-3-yl]butanamide]",30%
3,Cc1cc(Cl)ccc1OCCCC(=O)Nc1nnc(C(F)(F)F)[nH]1 [Compound 29],0%
4,O=C(COc1ccc(F)cc1Cl)Nc1nnc(C(F)(F)F)[nH]1 [Compound 93],80%

# Same assay, conditions: 336 h, rate 1000 g/ha, 14±1 days post application
row,SMILES,pest or weed control at 1000 g/ha
1,O=C(COc1ccc(Cl)cc1Cl)Nc1nnc(C(F)(F)F)[nH]1 [Compound 36],30%

# Tested on: Veronica persica (VERPE)
# Assay: Post-emergence herbicidal test, % visual injury
# Format: in vivo
# Conditions: 336 h, rate 500 g/ha, 14±1 days post application
# Description: as §4, §5
row,SMILES,pest or weed control at 500 g/ha
1,"O=C(CCCOc1ccc(Cl)cc1Cl)Nc1nnc(C(F)(F)F)[nH]1 [Compound 28, 4-(2,4-dichlorophenoxy)-N-[5-(trifluoromethyl)-4H-1,2,4-triazol-3-yl]butanamide]",60%
2,"O=C(CCCOc1ccc(F)cc1Cl)Nc1nnc(C(F)(F)F)[nH]1 [Compound 30, 4-(2-chloro-4-fluorophenoxy)-N-[5-(trifluoromethyl)-4H-1,2,4-triazol-3-yl]butanamide]",60%
3,Cc1cc(Cl)ccc1OCCCC(=O)Nc1nnc(C(F)(F)F)[nH]1 [Compound 29],80%
4,O=C(COc1ccc(F)cc1Cl)Nc1nnc(C(F)(F)F)[nH]1 [Compound 93],90%

# Same assay, conditions: 336 h, rate 1000 g/ha, 14±1 days post application
row,SMILES,pest or weed control at 1000 g/ha
1,O=C(COc1ccc(Cl)cc1Cl)Nc1nnc(C(F)(F)F)[nH]1 [Compound 36],98%

# Tested on: Lolium multiflorum (LOLMU)
# Assay: Post-emergence herbicidal test, % visual injury
# Format: in vivo
# Conditions: 336 h, rate 500 g/ha, 14±1 days post application
# Description: as §4, §5
row,SMILES,pest or weed control at 500 g/ha
1,"O=C(CCCOc1ccc(Cl)cc1Cl)Nc1nnc(C(F)(F)F)[nH]1 [Compound 28, 4-(2,4-dichlorophenoxy)-N-[5-(trifluoromethyl)-4H-1,2,4-triazol-3-yl]butanamide]",0%
2,"O=C(CCCOc1ccc(F)cc1Cl)Nc1nnc(C(F)(F)F)[nH]1 [Compound 30, 4-(2-chloro-4-fluorophenoxy)-N-[5-(trifluoromethyl)-4H-1,2,4-triazol-3-yl]butanamide]",70%
3,Cc1cc(Cl)ccc1OCCCC(=O)Nc1nnc(C(F)(F)F)[nH]1 [Compound 29],60%
4,O=C(COc1ccc(F)cc1Cl)Nc1nnc(C(F)(F)F)[nH]1 [Compound 93],70%

# Same assay, conditions: 336 h, rate 1000 g/ha, 14±1 days post application
row,SMILES,pest or weed control at 1000 g/ha
1,O=C(COc1ccc(Cl)cc1Cl)Nc1nnc(C(F)(F)F)[nH]1 [Compound 36],40%

# Tested on: Amaranthus retroflexus (AMARE)
# Assay: Post-emergence herbicidal test, % visual injury
# Format: in vivo
# Conditions: 336 h, rate 500 g/ha, 14±1 days post application
# Description: as §4, §5
row,SMILES,pest or weed control at 500 g/ha
1,"O=C(CCCOc1ccc(Cl)cc1Cl)Nc1nnc(C(F)(F)F)[nH]1 [Compound 28, 4-(2,4-dichlorophenoxy)-N-[5-(trifluoromethyl)-4H-1,2,4-triazol-3-yl]butanamide]",70%
2,"O=C(CCCOc1ccc(F)cc1Cl)Nc1nnc(C(F)(F)F)[nH]1 [Compound 30, 4-(2-chloro-4-fluorophenoxy)-N-[5-(trifluoromethyl)-4H-1,2,4-triazol-3-yl]butanamide]",80%
3,Cc1cc(Cl)ccc1OCCCC(=O)Nc1nnc(C(F)(F)F)[nH]1 [Compound 29],60%
4,O=C(COc1ccc(F)cc1Cl)Nc1nnc(C(F)(F)F)[nH]1 [Compound 93],100%

# Same assay, conditions: 336 h, rate 1000 g/ha, 14±1 days post application
row,SMILES,pest or weed control at 1000 g/ha
1,O=C(COc1ccc(Cl)cc1Cl)Nc1nnc(C(F)(F)F)[nH]1 [Compound 36],99%
